In brackets after ≈: the same amount, converted by molar mass. Where two headings read alike, the source gives them in different places.
Tests used:
Format in all cases: cell-based
[1] = system: Hela; experiment: In vitro anticancer activity test (MTT cell proliferation assay); settings: Homo sapiens, average proliferation inhibition rate at the dosage of 40 µM
Experimental: The anticancer activity of the compounds was tested using an in vitro cancer cell tests. The specific test method is as follows: • 1. Cell recovery and culture method: the cryovial was taken out from the liquid nitrogen container firstly, soaked directly in 37°C warm water, and shaked from time to time to let it thaw as soon as possible. Then, the cryovial was transferred to a clean bench, and the lid was open. The cell suspension was taken into a centrifuge tube using a rubber-tipped dropper and more than 10 times the culture medium was added, mixed well, and centrifuged at 50g for 5 minutes. Then, the supernatant was discarded, complete culture medium containing 10% fetal bovine serum was added to resuspend the cells, the cells was counted, the cell density was adjusted, and then inoculated into a culture bottle. The culture bottle was placed in a cell culture incubator at 5% CO2 and 37°C. The complete culture medium was replaced once the next day and the culture was continued. • 2. Cell passaging method: adherent cells in the logarithmic growth phase were placed in a clean bench, the original culture medium was discarded, and washed three times with 1×PBS. An appropriate amount of 0.25% trypsin digestion solution was added to moisten the cells, and then the trypsin solution was aspirated. The cells were placed in a cell culture incubator at 5% CO2 and 37°C for digestion for a suitable time, and observed under a microscope. When 90% of the cells become round, the cells were moved immediately to the clean bench and complete culture medium was added to terminate digestion. Then, the cells were dislodged by pipetting up and down with a rubber-tipped dropper to single cells. The cells were counted, and the cell density was adjusted. The cells were inoculated into a suitable culture bottle or dish, added enough complete culture medium, and placed in a cell culture incubator at 5% CO2 and 37°C for static culture. For suspension cells in the logarithmic phase, the original culture medium was directly centrifuged at 50g for 5 minutes, the supernatant was discarded, and the cells were washed once with PBS and centrifuged. After discarding the supernatant, the complete culture medium was added and the cells were dispersed using a rubber-tipped dropper. The cells are counted, and the cell density was adjusted. The cells were inoculated into appropriate culture bottles or culture dishes, and sufficient complete culture medium was added, and the cells were cultured in a cell culture incubator at 5% CO2 and 37°C. • 3. Cell proliferation assay: cells in good state in logarithmic phase were taken and appropriate amount of the cells was inoculated into 96-well plates according to the cell passage treatment method, with each well containing 180 µL complete medium. After the cells growth was recovered and the number of cells in each well is 5000±500, a drug was added for treatment. After drug treatment during the experimental time, MTT solution with a final concentration of 0.5 mg/mL was added to each well, and placed in a cell culture incubator at 5% CO2 and 37°C to allow a fully reaction of MTT with cells. After 4 hours, the solution in the 96-well plate was discarded, 100 µL of DMSO was added, and shaked to dissolve the formazan precipitated at the bottom of the plate, and the absorbance value of samples was detected at a wavelength of 570 nm using a microplate reader. Calculation method of cell viability rate: Viability rate = A sample group÷A control group × 100% [formula] • 4. Cell photography step: cells in good state in logarithmic phase were taken and an appropriate amount of cells was inoculated into 96-well plates according to the cell passage treatment method, with each well containing 180 µL complete medium. After the cells growth was recovered and the number of cells in each well is 5000 ± 500, a drug was added for treatment. […]

[2] = system: E. coli ATCC 25922; experiment: In vitro antibacterial activity assay (MIC, broth dilution); settings: Escherichia coli, ATCC25922
Description: (§1) The method used to indicate the activity of the compounds in this example is to record the minimum inhibitory concentration (MIC) of the compounds against bacteria. The specific experimental method is as follows: • 1. The bacterial liquid cultured from a single colony was taken, and diluted into autoclaved CAMHB broth in a ratio of 1:1000, and mixed well. • 2. The prepared drug solution was filtered through a sterile 0.22µm syringe filter and placed in a sterile EP tube for later use. • 3. A 96-well plate was taken, and 20µL of drug solution (400µg/mL) was added to each well in the first column of the 96-well plate. Then, 180µL of diluted bacterial liquid was added and mixed well (Perform 3 replicate rows for each drug). The same process was performed for the hydrochloride drug. • 4. 100 µL of diluted bacterial liquid was added to each well in the remaining 11 columns of the 96-well plate. Drugs are the same as above. • 5. Serial dilution: 100µL of liquid was taken from the first column to the second column, mixed well, then 100µL of liquid was taken from the second column to the third column, mixed well, and so on, sequentially diluting down to the last column (column 12). After mixing column 12 well, 100µL of liquid thereof was discarded. The drug concentration in each well was decreased by two-fold serially (the concentration in the first well is 40µg/mL). • 6. Blank CAMHB broth without added bacteria liquid was added to 3 blank wells in the 96-well plate, as negative control. • 7. The diluted bacterial liquid was added to 3 blank wells in the 96-well plate, as positive control. • 8. Incubated at 37°C for 16 hours. • 9. Results reading: the minimum inhibitory concentration is the minimum drug concentration at which no bacterial growth is visible to the naked eye and without turbidity.

[3] = system: S. aureus ATCC 43300; experiment: as above; settings: Staphylococcus aureus
Description: as §1

[4] = system: E. feacium ATCC 700221; experiment: as above; settings: read-out: G+ bacteria MIC E. feacium ATCC 700221
Description: as §1

[5] = system: A. baumannii ATCC 17978; experiment: as above; settings: Acinetobacter baumannii, ATCC17978; Table 2; 37°C, 16 hours; read-out: G- bacteria MIC A. baumannii ATCC 17978
Description: as §1

[6] = system: P.aeruginosa ATCC 27853; experiment: as above; settings: Pseudomonas aeruginosa, ATCC27853; Table 2; 37°C, 16 hours; read-out: G- bacteria MIC P.aeruginosa ATCC 27853
Description: as §1

[7] = Table 3, read-out: E. coli ATCC 25922 MIC
[8] = ATCC43300, Table 3, read-out: S. aureus ATCC 43300 MIC
[9] = ATCC43300, Table 1, 37°C, 16 hours, read-out: G+ bacteria MIC S. aureus ATCC 43300
[10] = Table 2, 37°C, 16 hours, read-out: G- bacteria MIC E. coli ATCC 25922

| Structure (SMILES) | MIC [2, 7] [µg/mL] | MIC [3, 8] [µg/mL] | MIC ([4]; Table 1, 37°C, 16 hours) [µg/mL] | MIC [3, 9] [µg/mL] | MIC [5] [µg/mL] | MIC [2, 10] [µg/mL] | MIC [6] [µg/mL] | inhibition at 40 µM [1] [%] | further results |
| --- | --- | --- | --- | --- | --- | --- | --- | --- | --- |
| O=C(O)c1cn(C2CC2)c2c([N+](=O)[O-])c(-c3ccc(NC(=O)C(F)(F)F)c([N+](=O)[O-])c3)c(F)cc2c1=O [Example 32] |  |  | 1 to 8 (≈ 1.91 to 15.3 µM) | ≤ 0.1 |  |  |  |  |  |
| O=C(O)c1cn(C2CC2)c2cc(-c3ccc(NC(=O)C(F)(F)F)c([N+](=O)[O-])c3)c(F)cc2c1=O [Example 35] |  |  |  |  | ≤ 0.1 | ≤ 0.1 | 0.1 to 1 (≈ 0.209 to 2.09 µM) |  |  |
| CC(C)(C)OC(=O)Nc1ccc(-c2cc3c(cc2F)c(=O)c(C(=O)O)cn3C2CC2)cc1[N+](=O)[O-] [Example 40] | ≥ 1 | ≤ 1 |  |  |  |  |  | ≥ 50 |  |
| CCCNS(=O)(=O)c1ccc(-c2c(F)cc3c(=O)c(C(=O)O)cn(C4CC4)c3c2Cl)cn1 [Example 15, 8-chloro-1-cyclopropyl-6-fluoro-4-oxo-7-(6-(N-propylsulfamoyl)pyridin-3-yl)-1,4-dihydroquinolin-3-carboxylic acid] |  |  | > 8 | ≤ 0.1 |  |  |  |  |  |
| CCCCCCCNS(=O)(=O)c1ccc(-c2cc3c(cc2F)c(=O)c(C(=O)O)cn3-c2ccc(F)cn2)cc1 [Example 19, 6-fluoro-1-(5-fluoropyridin-2-yl)-7-(4-(N-heptylsulfamoyl)phenyl)-4-oxo-1,4-dihydroquinolin-3-carboxylic acid] | ≥ 1 | ≤ 1 |  |  |  |  |  | ≥ 50 |  |
| Cc1c(-c2ccc(C(=O)NCC(C)(C)C)c(N)c2)c(F)cc2c(=O)c(C(=O)O)cn(C3CC3)c12 [Example 49] |  |  | 1 to 8 (≈ 2.15 to 17.2 µM) | ≤ 0.1 |  |  |  |  |  |
| O=C(O)c1cn(C2CC2)c2cc(-c3ccc(S(=O)(=O)NCCCl)cc3)c(F)cc2c1=O [Example 10, 7-(4-(N-(2-chloroethyl)sulfamoyl)phenyl)-1-cyclopropyl-6-fluoro-4-oxo-1,4-dihydroquinolin-3-carboxylic acid] |  |  |  |  |  |  |  |  | MIC ([4]; 16 h): > 8 µg/mL; MIC ([3]; ATCC43300, 16 h, read-out: G+ bacteria MIC S. aureus ATCC 43300): ≤ 0.1 µg/mL |
| COc1c(-c2ccc(NC(=O)C(F)(F)F)c([N+](=O)[O-])c2)c(F)cc2c(=O)c(C(=O)O)cn(C3CC3)c12 [Example 30, 1-cyclopropyl-6-fluoro-8-methoxy-7-(3-nitro-4-(2,2,2-triifluoroacetamido)phenyl)-4-oxo-1,4-dihydroquinolin-3-carboxylic acid] |  |  |  |  | 0.1 to 1 (≈ 0.196 to 1.96 µM) | ≤ 0.1 | 0.1 to 1 (≈ 0.196 to 1.96 µM) |  |  |
| CCCCCCCNS(=O)(=O)c1ccc(-c2cc3c(cc2F)c(=O)c(C(=O)O)cn3-c2ccc(F)cc2)cc1 [Example 12, 6-fluoro-1-(4-fluorophenyl)-7-(4-(N-heptylsulfamoyl)phenyl)-4-oxo-1,4-dihydroquinolin-3-carboxylic acid] | ≥ 1 | ≤ 1 |  |  |  |  |  | ≥ 50 |  |
| N#Cc1cc(-c2cc3c(cc2F)c(=O)c(C(=O)O)cn3C2CC2)ccc1S(=O)(=O)NC1CCOCC1 [Example 5, 7-(3-cyano-4-(N-(tetrahydro-2H-pyran-4-yl)sulfamoyl)phenyl)-1-cyclopropyl-6-fluoro-4-oxo-1,4-dihydroquinolin-3-carboxylic acid] |  |  | 1 to 8 (≈ 1.95 to 15.6 µM) | ≤ 0.1 | ≤ 0.1 | ≤ 0.1 | 0.1 to 1 (≈ 0.195 to 1.95 µM) |  |  |
| O=C(O)c1cn(C2CC2)c2cc(-c3ccc(S(=O)(=O)NCCO)cc3)c(F)cc2c1=O [Example 13, 1-cyclopropyl-6-fluoro-7-(4-(N-(2-hydroxyethyl)sulfamoyl)phenyl)-4-oxo-1,4-dihydroquinolin-3-carboxylic acid] |  |  | 1 to 8 (≈ 2.24 to 17.9 µM) | ≤ 0.1 | 0.1 to 1 (≈ 0.224 to 2.24 µM) | ≤ 0.1 | 0.1 to 1 (≈ 0.224 to 2.24 µM) |  |  |
| Nc1cc(-c2c(F)cc3c(=O)c(C(=O)O)cn(C4CC4)c3c2F)ccc1C(=O)NCC(F)(F)F [Example 43] | ≤ 1 | ≤ 1 |  |  | 0.1 to 1 (≈ 0.208 to 2.08 µM) | ≤ 0.1 | 0.1 to 1 (≈ 0.208 to 2.08 µM) | ≥ 20 |  |

Continued, in another order:

| MIC [2, 7] [µg/mL] | MIC [3, 8] [µg/mL] | MIC ([4]; Table 1, 37°C, 16 hours) [µg/mL] | MIC [3, 9] [µg/mL] | MIC [5] [µg/mL] | MIC [2, 10] [µg/mL] | MIC [6] [µg/mL] | Structure (SMILES) | inhibition at 40 µM [1] [%] | further results |
| --- | --- | --- | --- | --- | --- | --- | --- | --- | --- |
| ≥ 1 | ≤ 1 |  |  |  |  |  | CCCCCCCNS(=O)(=O)c1ccc(-c2cc3c(cc2F)c(=O)c(C(=O)O)cn3C2CC2)cc1C(F)(F)F [Example 132] | ≥ 20 |  |
| ≥ 1 | ≤ 1 |  |  |  |  |  | CCCCCCCNS(=O)(=O)c1ccc(-c2cc3c(cc2F)c(=O)c(C(=O)O)cn3C2CC2)cc1 [Example 101] | ≥ 50 |  |
|  |  |  |  | ≤ 0.1 | ≤ 0.1 | 0.1 to 1 (≈ 0.295 to 2.95 µM) | Nc1cc(-c2cc3c(cc2F)c(=O)c(C(=O)O)cn3C2CC2)ccn1 [Example 50] |  |  |
| ≥ 1 | ≤ 1 |  |  |  |  |  | COc1cc(-c2cc3c(cc2F)c(=O)c(C(=O)O)cn3C2CC2)ccc1NC(=O)C(C)(C)C [Example 65] | ≥ 50 |  |
| ≥ 1 | ≤ 1 |  |  |  |  |  | Nc1ccc(-c2c(F)cc3c(=O)c(C(=O)NO)cn(C4CC4)c3c2Cl)cc1[N+](=O)[O-] [Example 64] | ≥ 20 |  |
|  |  | > 8 | ≤ 0.1 | ≤ 0.1 | ≤ 0.1 | 1 to 8 (≈ 2.49 to 19.9 µM) | COc1c(N2C[C@@H]3CCCN[C@@H]3C2)c(F)cc2c(=O)c(C(=O)O)cn(C3CC3)c12 [Moxifloxacin, reference compound] |  |  |
| ≥ 1 | ≤ 1 |  |  |  |  |  | COc1c(-c2ccc(N)c([N+](=O)[O-])c2)c(F)cc2c(=O)c(C(=O)NO)cn(C3CC3)c12 [Example 138] | ≥ 50 |  |

From patent EP4644391A1, “NOVEL PHENYLQUINOLONE COMPOUND HAVING ANTIBACTERIAL AND ANTICANCER FUNCTIONS, AND PREPARATION THEREOF” (Alphamol Science Ltd (Shanghai), priority 2022, dated 2024)
